Results taken from patent publication US12544395B2, “Combination compositions comprising a beta-lactamase inhibitor and uses thereof” (priority 2018, dated 2026).
Values after ≈ are worked out from the molar mass of the structure shown. Values joined by “and” are separate entries in the source; they are usually repeats but may differ in a detail not shown here. Equal values may be shown once.

How the values were obtained:
[1] = system: ESBL-expressing Enterobacteriaceae (n = 33); experiment: Broth microdilution MIC, ceftibuten/Compound 2 vs IV comparators; format: cell-based
[2] = system: KPC-expressing Enterobacteriaceae (n = 77); experiment: organism not typed; format: cell-based
[3] = system: AmpC/CMY-expressing Enterobacteriaceae (n = 44); experiment: Broth microdilution MIC, ceftibuten/Compound 2 vs IV comparators; format: cell-based
[4] = Metabolic stability in liver S9; format: in vitro ADME; conditions: liver S9; Human; test conc. 3 μM
[5] = Metabolic stability in plasma; format: in vitro ADME, beagle dog; conditions: beagle, plasma; Dog; test conc. 3 μM
[6] = Metabolic stability in liver S9; format: in vitro ADME, CD-1 mouse; conditions: CD-1, liver S9; Mouse; test conc. 3 μM

Nc1nc(/C(=C/CC(=O)O)C(=O)N[C@@H]2C(=O)N3C(C(=O)O)=CCS[C@H]23)cs1 [Ceftibuten, ceftibuten, reference compound]
Number of strains at MIC value 0.5 mg/L ([1]; ESBL-expressing (n = 33)): 2 | Number of strains at MIC value 1 mg/L ([1]; ESBL-expressing (n = 33)): 4 | Number of strains at MIC value 2 mg/L ([1]; ESBL-expressing (n = 33)): 2 | Number of strains at MIC value 4 mg/L ([1]; ESBL-expressing (n = 33)): 8 | Number of strains at MIC value 8 mg/L ([1]; ESBL-expressing (n = 33)): 5 | Number of strains at MIC value 16 mg/L ([1]; ESBL-expressing (n = 33)): 1 | Number of strains at MIC value […] ([1]; ESBL-expressing (n = 33)): 2 and 3 | Number of strains at MIC value ≤0.06 mg/L ([1]; ESBL-expressing (n = 33)): 0 | Number of strains at MIC value ≥32 mg/L ([1]; ESBL-expressing (n = 33)): 6 | MIC50 ([1]; iv): 4 µg/mL (≈ 9.75 µM) | MIC90 ([1]; iv): ≥ 32 µg/mL | Number of strains at MIC value 0.5 mg/L ([2]; KPC-expressing (n = 77)): 2 | Number of strains at MIC value 1 mg/L ([2]; KPC-expressing (n = 77)): 2 | Number of strains at MIC value 2 mg/L ([2]; KPC-expressing (n = 77)): 4 | Number of strains at MIC value 4 mg/L ([2]; KPC-expressing (n = 77)): 7 | Number of strains at MIC value 8 mg/L ([2]; KPC-expressing (n = 77)): 13 | Number of strains at MIC value 16 mg/L ([2]; KPC-expressing (n = 77)): 24 | Number of strains at MIC value […] ([2]; KPC-expressing (n = 77)): 0 | Number of strains at MIC value ≤0.06 mg/L ([2]; KPC-expressing (n = 77)): 0 | Number of strains at MIC value ≥32 mg/L ([2]; KPC-expressing (n = 77)): 25 | MIC90 ([2]; iv): ≥ 32 µg/mL | Number of strains at MIC value 0.5 mg/L ([3]; AmpC/CMY-expressing (n = 44)): 0 | Number of strains at MIC value 1 mg/L ([3]; AmpC/CMY-expressing (n = 44)): 1 | Number of strains at MIC value 2 mg/L ([3]; AmpC/CMY-expressing (n = 44)): 5 | Number of strains at MIC value 4 mg/L ([3]; AmpC/CMY-expressing (n = 44)): 3 | Number of strains at MIC value 8 mg/L ([3]; AmpC/CMY-expressing (n = 44)): 7 | Number of strains at MIC value 16 mg/L ([3]; AmpC/CMY-expressing (n = 44)): 7 | Number of strains at MIC value […] ([3]; AmpC/CMY-expressing (n = 44)): 0 | Number of strains at MIC value ≤0.06 mg/L ([3]; AmpC/CMY-expressing (n = 44)): 1 | Number of strains at MIC value ≥32 mg/L ([3]; AmpC/CMY-expressing (n = 44)): 20 | MIC50 ([3]; iv): ≥ 32 µg/mL | MIC90 ([3]; iv): ≥ 32 µg/mL

CCC(=O)N[C@H]1Cc2cccc(C(=O)O)c2OB1O [Compound 2, (R)-2-hydroxy-3-propionamido-3,4-dihydro-2H-benzo[e][1,2]oxaborinine-8-carboxylic acid]
half-life at 3 μM [4]: > 2 h | half-life at 3 μM [5]: > 2 h | half-life at 3 μM [6]: > 2 h
